Molecular target: MAPK14 (human) (UniProt Q16539)
Test: LPS Induced TNF-alpha Production Inhibition (THP1 Cells)
Conditions: not given

MAPK14 (human), sequence (Q16539 whole entry, looked up): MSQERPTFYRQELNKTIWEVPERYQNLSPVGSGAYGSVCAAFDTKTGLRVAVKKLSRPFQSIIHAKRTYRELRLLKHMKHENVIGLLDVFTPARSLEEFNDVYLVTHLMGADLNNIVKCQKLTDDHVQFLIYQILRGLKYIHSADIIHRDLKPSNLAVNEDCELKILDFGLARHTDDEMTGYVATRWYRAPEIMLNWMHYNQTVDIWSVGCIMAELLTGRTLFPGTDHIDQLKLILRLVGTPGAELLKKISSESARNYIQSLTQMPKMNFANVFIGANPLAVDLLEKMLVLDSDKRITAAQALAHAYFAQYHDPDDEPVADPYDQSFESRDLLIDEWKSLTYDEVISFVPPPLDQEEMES

Row | SMILES | IC50
1 | N#CCCCn1c(-c2ccncc2)c(-c2ccc(F)cc2)c2nccnc21 | 8830 nM
2 | Fc1ccc(-c2c(-c3ccncc3)n(CCN3CCCCC3)c3cccnc23)cc1 | 0.3 nM

The next lines start with the values.

Row | IC50 | SMILES
3 | 0.12 nM | Fc1ccc(-c2c(-c3ccncc3)n(OCCN3CCCC3)c3cccnc23)cc1
4 | 241 nM | OCCNc1cc(-c2[nH]c3nccnc3c2-c2ccc(F)cc2)ccn1
5 | 1100 nM | Fc1ccc(-c2c(-c3ccncc3)[nH]c3nccnc23)cc1
6 | 0.46 nM | COn1c(-c2ccncc2)c(-c2ccc(F)cc2)c2ncccc21

System: MAPK14 (Balb/c mice)
Test: LPS Induced TNF-alpha Prodcution Inhibition (BALB/c Mice)
Conditions: dose or concentration not given here

Row | SMILES | inhibition
7 | COn1c(-c2ccncc2)c(-c2ccc(F)cc2)c2ncccc21 | 75%
8 | Fc1ccc(-c2c(-c3ccncc3)n(OCCN3CCOCC3)c3cccnc23)cc1 | 56%
9 | Fc1ccc(-c2c(-c3ccncc3)oc3cccnc23)cc1 | 86%
10 | Fc1ccc(-c2c(-c3ccncc3)[nH]c3cccnc23)cc1 | 68%

Source: the Kinase Knowledgebase extract (Sharma et al. 2016)
